This is an account of results in PubChem BioAssay AID743127 (The Scripps Research Institute Molecular Screening Center, 2013).

This experiment is described as follows: cytotoxicity of LYPLA inhibitor compounds, late-stage follow-up, cytotoxicity control for LYPLA1/LYPLA2 inhibitor project, cell-based, absorbance readout, serum-free and serum-supplemented medium (AID 743127). The following applies: cell viability, serum-free or serum medium.

The source made the active and inactive calls. How the calls were made is not given here.

The term CC50 denotes the concentration that lowers cell viability or growth by half. With `O=C(ON1C(=O)C2CN(C(=O)N3CCCCC3)CCN2C1=O)N1CCC(CCc2ccc(Cl)cc2)CC1` (centres undefined), the CC50 (in serum-free medium) is > 10 µM (inactive) and the CC50 (in serum-supplemented medium) is > 10 µM (inactive).
In the case of `O=C(ON1C(=O)C2CN(C(=O)N3CCOCC3)CCN2C1=O)N1CCC(CCc2ccc(Cl)cc2)CC1` (centres undefined), the CC50 was > 100 µM (inactive) (in serum-free medium) and 100 µM (inactive) (in serum-supplemented medium).
